{"source": "patent US20240156856A1", "about": "“NOVEL APPLICATIONS OF HYALURONIC ACID FOR TREATMENT OF PAIN AND PRURITIS” (THE REGENTS OF THE UNIVERSITY OF CALIFORNIA, priority 2022, published 2024)", "key": {"[1]": {"tested_on": "rats with oxaliplatin CIPN", "assay": "Oxaliplatin CIPN mechanical hyperalgesia, Randall-Selitto paw-withdrawal test", "type": "in vivo, Sprague-Dawley rats", "description": "(§1) Experimental animals. Experiments were performed on 220-400 g male and female Sprague-Dawley rats, purchased from Charles River Laboratories (Hollister, CA, USA), housed three per cage, under a 12-hour light/dark cycle, in a temperature- and humidity-controlled animal care facility at the University of California, San Francisco. Food and water were available ad libitum. Experimental protocols were approved by the University of California, San Francisco, Institutional Animal Care and Use Committee, and adhered to the National Institutes of Health Guidelines for the care and use of laboratory animals.\n(§2) Measurement of nociceptive threshold. Mechanical nociceptive threshold was quantified with an Ugo Basile Analgesymeter (Stoelting, Wood Dale, IL, USA), used to perform the Randall-Selitto paw-withdrawal test [61; 68; 69]. This device uses a dome-shaped plinth to apply a mechanical force that increases linearly with time, to the dorsum of a rat's hindpaw. To perform the Randall-Selitto paw-withdrawal test, rats were placed in cylindrical acrylic restrainers with lateral ports that allow access to the hind paw, as described previously. Rats were acclimatized to the testing procedure by placing them in restrainers for 1 h per day for 3 consecutive daily training sessions, and for 30-40 min prior to experiments.\n(§3) Mechanical nociceptive threshold is defined as the force, in grams, applied by the plinth to the dorsum of the hindpaw, at which a rat withdraws its paw from the stimulus. Baseline paw-withdrawal threshold is defined as the mean of three readings taken before administration of test agents. To minimize experimenter bias, individuals conducting experiments were blinded to experimental treatments. Each experiment was performed on a different group of rats. Data are presented as mechanical nociceptive threshold, in grams (g) or percentage change from preintervention baseline.\n(§4) Hyaluronans were initially dissolved in distilled water (dH2O) at a concentration of 10 μg/μL, stock solution, and further diluted by adding DMSO with three final concentrations of hyaluronan (1, 2 and 4 μg/μL), protamine or terpene; unless otherwise stated, the final concentration of DMSO was 75%. The DMSO vehicle was 75% DMSO in 0.9% saline. In one experiment, 500-1200 kDa hyaluronan was administered topically in 0.9% saline vehicle. PGE2 was dissolved in 0.9% saline at the same final concentration that we previously injected intradermally (100 ng/5 μL). In the experiments in which hyaluronan was dissolved in protamine or terpene vehicle, protamine was first dissolved in distilled water (dH2O) to a concentration of 5 μg/μ1, stock solution of hyaluronan was combined with protamine at the final concentration of 2 μg/μ1, in a volume of 3 μl, for topical administration; terpene was first dissolved in dH2O at the concentration of 2 μg/μ1, then hyaluronan was dissolved in stock solution of terpene to its final concentration of 2 μg/μ1, in a volume of 3 μl, for topical administration).\nOxaliplatin CIPN: Oxaliplatin was freshly dissolved in 0.9% saline at a concentration of 2 mg/mL just prior to its tail vein intravenous (i.v.) administration (1 mL/kg), to rats briefly anesthetized with isoflurane (2.5% in O2).\nHyaluronans (30 μL) were administered topically on the dorsum of the hind paw, dispensed from a P200 pipette (Gilson, Middleton, WI, USA) with a plastic pipette tip and then spread manually. […]\nBefore use, ODNs were reconstituted in nuclease-free 0.9% saline and then administered by the intrathecal (i.t.) route. As described previously, rats were anesthetized with isoflurane (2.5% in O2) and 120 μg of ODN, in a volume of 20 μL, injected i.t., using a syringe ([…]) attached to a 29-gauge hypodermic needle that was inserted into the subarachnoid space, between the L4 and L5 vertebrae. The i.t. site of the injectate was confirmed by a sudden flick of the rat's tail, a reflex evoked by subarachnoid space access and bolus i.t. injection. […]"}, "[2]": {"tested_on": "rats with bortezomib CIPN", "assay": "Bortezomib CIPN mechanical hyperalgesia, Randall-Selitto paw-withdrawal test", "type": "in vivo, Sprague-Dawley rats", "settings": "topical 2 μg/μL", "description": "as §1, §2\nMechanical nociceptive threshold is defined as the force, in grams, applied by the plinth to the dorsum of the hindpaw, at which a rat withdraws its paw from the stimulus. Baseline paw-withdrawal threshold is defined as the mean of three readings taken before administration of test agents. To minimize experimenter bias, individuals conducting experiments were blinded to experimental treatments. Each experiment was performed on a different group of rats. Data are presented as mechanical nociceptive threshold, in grams (g) or percentage change from preintervention baseline. […]"}, "rats": {"tested_on": "rats", "settings": "previously shown; cited from earlier work"}, "[3]": {"tested_on": "rats with paclitaxel CIPN", "assay": "Paclitaxel CIPN mechanical hyperalgesia, Randall-Selitto paw-withdrawal test", "type": "in vivo, Sprague-Dawley rats", "description": "as §1, §2, §3, §4\nPaclitaxel CIPN: Paclitaxel was dissolved in Cremophor EL and ethanol (1:1) [1; 6; 20; 22] and diluted in 0.9% saline to a concentration of 1 mg/mL, just prior to its intraperitoneal (i.p.) administration (1 mg/kg, i.p.) [19; 42] to rats briefly anesthetized with isoflurane (2.5% in O2), every other day for a total of 4 doses.\nHyaluronans (30 μL) were administered topically on the dorsum of the hind paw, dispensed from a P200 pipette (Gilson, Middleton, WI, USA) with a plastic pipette tip and then spread manually.\nAntisense oligodeoxynucleotides (ODNs).\nBefore use, ODNs were reconstituted in nuclease-free 0.9% saline and then administered by the intrathecal (i.t.) route. As described previously, rats were anesthetized with isoflurane (2.5% in O2) and 120 μg of ODN, in a volume of 20 μL, injected i.t., using a syringe ([…]) attached to a 29-gauge hypodermic needle that was inserted into the subarachnoid space, between the L4 and L5 vertebrae. […]"}, "[4]": {"tested_on": "PGE2 hyperalgesia in male and female rats", "assay": "PGE2-induced mechanical hyperalgesia, Randall-Selitto paw-withdrawal test", "type": "in vivo, Sprague-Dawley rats", "settings": "for PGE2-induced hyperalgesia (mechanical nociceptive threshold): topical 2 μg/μL in 30 μL DMSO vehicle, 30 and 60 min after PGE2", "description": "as §1, §2, §3\nHyaluronans were initially dissolved in distilled water (dH2O) at a concentration of 10 μg/μL, stock solution, and further diluted by adding DMSO with three final concentrations of hyaluronan (1, 2 and 4 μg/μL), protamine or terpene; unless otherwise stated, the final concentration of DMSO was 75%. The DMSO vehicle was 75% DMSO in 0.9% saline. In one experiment, 500-1200 kDa hyaluronan was administered topically in 0.9% saline vehicle. PGE2 was dissolved in 0.9% saline at the same final concentration that we previously injected intradermally (100 ng/5 μL). […]"}, "[5]": {"settings": "female rats given i.t. GPR30 antisense or mismatch ODN, topical 2 μg/μL, 30 μL"}, "[6]": {"settings": "gonad intact female rats, topical 2 μg/μL, 30 μL in DMSO vehicle"}, "[7]": {"settings": "male rats given i.t. CD44 antisense or mismatch ODN, topical 2 μg/μL, 30 μL in DMSO"}, "[8]": {"settings": "male rats, reapplied at the same site after first effect wore off, DMSO vehicle"}, "[9]": {"settings": "male rats, topical 2 μg/μL, 30 μL in DMSO, day 7"}, "[10]": {"settings": "male rats, topical 2 μg/μL, 30 μL in DMSO, repeated-administration experiment"}, "[11]": {"settings": "ovariectomized female rats, topical 2 μg/μL, 30 μL in DMSO"}}, "note": "“Also recorded” adds a separate entry of the source.", "data": [{"substance": "hyaluronan [500-1200 kDa hyaluronan]", "values": [{"measurement": "duration of anti-hyperalgesic effect after initial topical application", "setting": "[1]; CIPN rats, initial application, DMSO vehicle", "value": "approximately 60 minutes"}, {"measurement": "hyperalgesia induced by oxaliplatin", "setting": "[1]; [5]", "value": "attenuated the hyperalgesia induced by oxaliplatin only in the GPR30 antisense-treated group"}, {"measurement": "hyperalgesia induced by oxaliplatin", "setting": "[1]; [6]", "value": "did not attenuate hyperalgesia"}, {"measurement": "hyperalgesia induced by oxaliplatin", "setting": "[1]; [7]", "value": "only attenuated the hyperalgesia induced by oxaliplatin in the CD44 mismatch-treated group"}, {"measurement": "CIPN hyperalgesia, effect of hyaluronan molecular weight range", "setting": "[1]; male rats with oxaliplatin CIPN, topical, combined with DMSO", "value": "produced robust anti-hyperalgesia, of similar magnitude and duration"}, {"measurement": "time at which anti-hyperalgesia was still present after the second administration", "setting": "[1]; [8]", "value": "≥ 180", "unit": "min"}, {"measurement": "oxaliplatin CIPN hyperalgesia", "setting": "[1]; male rats, topical 1 μg/μL, 30 μL in DMSO, day 7", "value": "only attenuates CIPN hyperalgesia 10 min after application"}, {"measurement": "oxaliplatin CIPN hyperalgesia", "setting": "[1]; male rats, topical 2 μg/μL in 0.9% saline, without DMSO", "value": "did not attenuate oxaliplatin CIPN hyperalgesia"}, {"measurement": "anti-hyperalgesia in oxaliplatin CIPN", "setting": "[1]; male rats, topical 2 μg/μL, 30 μL in 5% DMSO", "value": "did not produce anti-hyperalgesia"}, {"measurement": "anti-hyperalgesia in oxaliplatin CIPN", "setting": "[1]; male rats, topical 2 μg/μL, 30 μL in 15% DMSO", "value": "did not produce anti-hyperalgesia"}, {"measurement": "anti-hyperalgesia in oxaliplatin CIPN", "setting": "[1]; male rats, topical 2 μg/μL, 30 μL in 20% DMSO", "value": "produced anti-hyperalgesia"}, {"measurement": "anti-hyperalgesia in oxaliplatin CIPN", "setting": "[1]; male rats, topical 2 μg/μL, 30 μL in 25% DMSO", "value": "produced anti-hyperalgesia"}, {"measurement": "anti-hyperalgesia in oxaliplatin CIPN", "setting": "[1]; male rats, topical 2 μg/μL, 30 μL in 50% DMSO", "value": "produced anti-hyperalgesia"}, {"measurement": "anti-hyperalgesia in oxaliplatin CIPN", "setting": "[1]; male rats, topical 2 μg/μL, 30 μL in 75% DMSO", "value": "produced anti-hyperalgesia"}, {"measurement": "oxaliplatin CIPN hyperalgesia", "setting": "[1]; [9]", "value": "attenuated hyperalgesia 10, 30 and 60 min after application; also recorded: induced anti-hyperalgesia"}, {"measurement": "time by which anti-hyperalgesia dissipated, first administration", "setting": "[1]; [10]", "value": "≤ 120", "unit": "min"}, {"measurement": "oxaliplatin CIPN hyperalgesia", "setting": "[1]; male rats, topical 4 μg/μL, 30 μL in DMSO, day 7", "value": "attenuated hyperalgesia 10, 30 and 60 min after application"}, {"measurement": "time after application by which the anti-hyperalgesic effect dissipated", "setting": "[1]; male rats, topical 2 and 4 μg/μL in DMSO", "value": "≤ 120", "unit": "min"}, {"measurement": "anti-hyperalgesia in oxaliplatin-induced CIPN", "setting": "[1]; [11]", "value": "induced anti-hyperalgesia of similar magnitude to that observed in gonad intact male rats"}, {"measurement": "hyperalgesia induced by bortezomib", "setting": "[2]; female rats, 30 μL in DMSO vehicle", "value": "did not attenuate hyperalgesia"}, {"measurement": "hyperalgesia induced by bortezomib", "setting": "[2]; male rats, 30 μL in DMSO, day 7", "value": "attenuated hyperalgesia induced by bortezomib"}, {"measurement": "nociceptive effect of intradermal injection", "setting": "rats", "value": "induced anti-hyperalgesia"}, {"measurement": "hyperalgesia induced by paclitaxel", "setting": "[3]; [5]", "value": "only attenuated the hyperalgesia induced by paclitaxel in the GPR30 antisense-treated group"}, {"measurement": "hyperalgesia induced by paclitaxel", "setting": "[3]; [6]", "value": "did not attenuate hyperalgesia"}, {"measurement": "hyperalgesia induced by paclitaxel", "setting": "[3]; [7]", "value": "attenuated the hyperalgesia induced by paclitaxel only in the CD44 mismatch-treated group"}, {"measurement": "time at which anti-hyperalgesia was still present after the second administration", "setting": "[3]; [8]", "value": "≥ 180", "unit": "min"}, {"measurement": "hyperalgesia induced by paclitaxel", "setting": "[3]; [9]", "value": "attenuated the hyperalgesia induced by paclitaxel"}, {"measurement": "time by which anti-hyperalgesia dissipated, first administration", "setting": "[3]; [10]", "value": "≤ 120", "unit": "min"}, {"measurement": "anti-hyperalgesia in paclitaxel-induced CIPN", "setting": "[3]; [11]", "value": "induced anti-hyperalgesia of similar magnitude to that observed in gonad intact male rats"}, {"measurement": "PGE2-induced hyperalgesia (mechanical nociceptive threshold)", "setting": "[4]; female rats", "value": "attenuated PGE2-induced hyperalgesia"}, {"measurement": "PGE2-induced hyperalgesia (mechanical nociceptive threshold)", "setting": "[4]; male rats", "value": "attenuated PGE2-induced hyperalgesia"}, {"measurement": "magnitude of topical anti-hyperalgesia compared with intradermal injection", "setting": "[4]; topical, combined with DMSO", "value": "anti-hyperalgesia of similar magnitude to that produced by its intradermal injection"}]}]}
